Molecules are shown by their SMILES.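 Five concentrations, 48 hours, 96-well plates. GI50 is the concentration that inhibits growth by half. TGI denotes the concentration required for complete inhibition of growth.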

Assay in all cases: NCI tumour cell line growth inhibition, 48 h
The subject of experiment [1] is A498 renal.
The subject of experiment [2] is BT-549 breast.
Experiment [3] relates to HOP-62 NSCLC.
Experiment [4] relates to HOP-92 NSCLC.
The test system of experiment [5] is LOX IMVI melanoma.
Experiment [6] deals with NCI-H460 lung.
Experiment [7] relates to NCI-H522 lung.
The test system of experiment [8] is SK-MEL-2 melanoma.
Experiment [9] has as its system TK-10 renal.
Experiment [10] deals with U251 CNS.

`CC1(C)OC2[C@@H](CNC(=O)NC(=O)NC(=O)CI)O[C@@H](n3cnc4c(NC(=O)Nc5ccccc5)ncnc43)[C@H]2O1` (stereo not given in full): the GI50 in [1] is 18 µM; in experiment [2], 7.83 µM; in experiment [3], > 50 µM; in [4] it was 1.4 µM; in [5], 0.907 µM; in experiment [6], 27 µM. The GI50 in experiment [7] was 0.742 µM; in experiment [8] it was 10.5 µM; in experiment [9], 8.59 µM; in experiment [10], 10 µM. Also, the TGI is > 50 µM in experiment [1]; 14.7 µM in [2]; > 50 µM in experiment [3]; 4.23 µM in experiment [4]; 1.74 µM in experiment [5]; > 50 µM in experiment [6]. Besides, the TGI in experiment [7] amounted to 1.5 µM; in experiment [8] it was 21.5 µM; in experiment [9], 15.5 µM; in experiment [10] it was 20.4 µM.

For `COc1cc(C2NC(=O)c3ccccc3N2)ccc1OCCCCCOc1c(OC)cc(C2=NOC(c3cc(OC)c(OC)c(OC)c3)C2)cc1OC` (stereo not given), the GI50 in experiment [1] was 19.5 µM; in experiment [2] it was 0.507 µM; in experiment [3], 17.3 µM; in experiment [4], 60.2 µM; in experiment [5], 16.7 µM; in experiment [6] it was 14.2 µM. For the same molecule, the GI50 in experiment [7] is 17.1 µM; in [8], 35.9 µM; in experiment [9] it was > 100 µM; in [10], 19.6 µM. For the same molecule, the TGI is > 76.8 µM in [1]; > 100 µM in experiment [2]; 61.3 µM in experiment [3]; > 100 µM in experiment [4]; > 100 µM in experiment [5]; 67.2 µM in experiment [6]. Besides, the TGI in [7] was > 56.2 µM; in experiment [8], > 100 µM; in experiment [9], > 100 µM; in experiment [10], > 100 µM.

For `C[C@]12CC[C@H]3[C@@H](CC=C4C[C@@H](O)CC[C@@]43C)[C@@H]1CC[C@@H]2N(CCO)CCO`, the TGI in [1] is 73 µM; in experiment [2], > 100 µM; in experiment [3] it was > 100 µM; in [4] it was > 100 µM; in experiment [5] it was > 100 µM; in experiment [6] it was > 100 µM. Further, the TGI in [7], in experiment [8], in experiment [9] and in experiment [10] was > 100 µM in each case.

As for `Oc1c(CN2CCC(N3CCCCC3)CC2)cc(Cc2cc(CN3CCC(N4CCCCC4)CC3)c(O)c3ncccc23)c2cccnc12`, the GI50 in experiment [1] is 5.02 µM; in [2] it was 1.48 µM; in experiment [3] it was 0.425 µM; in experiment [4], 3.38 µM; in [5] it was 0.62 µM; in experiment [6], 0.287 µM. For the same molecule, the GI50 was 1.39 µM in [7], 2.21 µM in [8], 1.14 µM in experiment [9] and 0.835 µM in [10]. In addition, the TGI in [1] was 18 µM; in [2], 5.13 µM; in experiment [3] it was 4.93 µM; in [4], 21 µM; in experiment [5] it was 2.89 µM; in experiment [6], 11.5 µM. Also, the TGI was found to be 3.63 µM in experiment [7], 7.04 µM in experiment [8], 10.3 µM in [9] and 13.6 µM in experiment [10].

For `CC[C@@H]1CN(C)[C@H]2Cc3c([nH]c4ccccc34)C(=O)C[C@H]1C2C(=O)OC` (stereo not given in full), the TGI in experiment [1], in experiment [2], in [3], in experiment [4], in experiment [5] and in [6] was > 100 µM each time. In addition, the TGI in experiment [7], in experiment [8], in experiment [9] and in experiment [10] was > 100 µM throughout.

Regarding `COC1/C=C\C=C(/C)C(=O)NC2=CC(=O)C(=O)C(=C2O)CC(C)CC(OC)C(O)C(C)/C=C(\C)C1OC(N)=O` (stereo not given), the TGI is > 100 µM in experiment [1]; > 100 µM in experiment [2]; > 74.1 µM in [3]; 21 µM in experiment [4]; 13.9 µM in experiment [5]; > 100 µM in experiment [6]. In addition, the TGI was 18.3 µM in [7], > 60.5 µM in experiment [8], > 57.5 µM in experiment [9] and > 40.3 µM in experiment [10].

Turning to `Oc1ccc(CN2CCC(N3CCCCC3)CC2)c2cccnc12`, the GI50 is > 100 µM in experiment [1]; 11.5 µM in experiment [2]; 6.25 µM in [3]; 4.51 µM in experiment [4]; 5.32 µM in experiment [5]; 4.01 µM in experiment [6]. The GI50 in experiment [7] was 3.43 µM; in experiment [8] it was 27.9 µM; in experiment [9], 78.2 µM; in experiment [10], 5.57 µM. Moreover, the TGI in experiment [1], in experiment [2], in experiment [3], in [4], in [5] and in experiment [6] was > 100 µM in each case. Moreover, the TGI in experiment [7] was 43.9 µM; in experiment [8], > 100 µM; in experiment [9] it was > 100 µM; in experiment [10], > 100 µM.

The values above are taken from PubChem BioAssay (NCI).
